Reference: ChEMBL document CHEMBL4507289, “Data for DCP probe GSM1” (2021)

What was measured:
[1] = biological target: Serine/threonine-protein kinase ULK2 (Homo sapiens) (UniProt Q8IYT8); details: Compound concentration 1000.0 nM
[2] = biological target: Homeodomain-interacting protein kinase 3 (Homo sapiens) (UniProt Q9H422); details: Compound concentration 1000.0 nM
[3] = biological target: Serine/threonine-protein kinase 33 (Homo sapiens) (UniProt Q9BYT3); details: Compound concentration 1000.0 nM
[4] = biological target: Tyrosine-protein kinase Lyn (Homo sapiens) (UniProt P07948); details: Compound concentration 1000.0 nM
Sequence of Tyrosine-protein kinase Lyn (Homo sapiens) (P07948 2-512 limits assumed): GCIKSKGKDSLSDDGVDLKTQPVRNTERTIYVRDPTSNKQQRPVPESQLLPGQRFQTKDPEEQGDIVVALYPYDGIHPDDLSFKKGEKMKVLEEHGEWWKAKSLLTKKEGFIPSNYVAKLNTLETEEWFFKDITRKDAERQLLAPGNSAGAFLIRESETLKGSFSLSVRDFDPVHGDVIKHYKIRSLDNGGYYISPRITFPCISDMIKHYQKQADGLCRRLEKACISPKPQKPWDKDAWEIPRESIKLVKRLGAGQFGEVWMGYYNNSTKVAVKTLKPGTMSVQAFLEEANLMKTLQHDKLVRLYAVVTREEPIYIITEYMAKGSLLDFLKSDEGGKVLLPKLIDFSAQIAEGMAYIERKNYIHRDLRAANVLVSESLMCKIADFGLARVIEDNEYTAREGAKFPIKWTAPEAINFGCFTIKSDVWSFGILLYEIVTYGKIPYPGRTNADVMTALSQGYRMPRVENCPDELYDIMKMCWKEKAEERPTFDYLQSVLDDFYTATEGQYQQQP

[5] = biological target: LIM domain kinase 1 (Homo sapiens) (UniProt P53667); details: Compound concentration 1000.0 nM
[6] = biological target: Dual specificity protein kinase TTK (Homo sapiens) (UniProt P33981); details: Compound concentration 1000.0 nM
[7] = tested on: Epidermal growth factor receptor (Homo sapiens), P00533 [L861Q]; details: Compound concentration 1000.0 nM
[8] = biological target: Serine/threonine-protein kinase WNK4 (Homo sapiens) (UniProt Q96J92); details: Compound concentration 1000.0 nM
Sequence of Serine/threonine-protein kinase WNK4 (Homo sapiens) (Q96J92 whole entry): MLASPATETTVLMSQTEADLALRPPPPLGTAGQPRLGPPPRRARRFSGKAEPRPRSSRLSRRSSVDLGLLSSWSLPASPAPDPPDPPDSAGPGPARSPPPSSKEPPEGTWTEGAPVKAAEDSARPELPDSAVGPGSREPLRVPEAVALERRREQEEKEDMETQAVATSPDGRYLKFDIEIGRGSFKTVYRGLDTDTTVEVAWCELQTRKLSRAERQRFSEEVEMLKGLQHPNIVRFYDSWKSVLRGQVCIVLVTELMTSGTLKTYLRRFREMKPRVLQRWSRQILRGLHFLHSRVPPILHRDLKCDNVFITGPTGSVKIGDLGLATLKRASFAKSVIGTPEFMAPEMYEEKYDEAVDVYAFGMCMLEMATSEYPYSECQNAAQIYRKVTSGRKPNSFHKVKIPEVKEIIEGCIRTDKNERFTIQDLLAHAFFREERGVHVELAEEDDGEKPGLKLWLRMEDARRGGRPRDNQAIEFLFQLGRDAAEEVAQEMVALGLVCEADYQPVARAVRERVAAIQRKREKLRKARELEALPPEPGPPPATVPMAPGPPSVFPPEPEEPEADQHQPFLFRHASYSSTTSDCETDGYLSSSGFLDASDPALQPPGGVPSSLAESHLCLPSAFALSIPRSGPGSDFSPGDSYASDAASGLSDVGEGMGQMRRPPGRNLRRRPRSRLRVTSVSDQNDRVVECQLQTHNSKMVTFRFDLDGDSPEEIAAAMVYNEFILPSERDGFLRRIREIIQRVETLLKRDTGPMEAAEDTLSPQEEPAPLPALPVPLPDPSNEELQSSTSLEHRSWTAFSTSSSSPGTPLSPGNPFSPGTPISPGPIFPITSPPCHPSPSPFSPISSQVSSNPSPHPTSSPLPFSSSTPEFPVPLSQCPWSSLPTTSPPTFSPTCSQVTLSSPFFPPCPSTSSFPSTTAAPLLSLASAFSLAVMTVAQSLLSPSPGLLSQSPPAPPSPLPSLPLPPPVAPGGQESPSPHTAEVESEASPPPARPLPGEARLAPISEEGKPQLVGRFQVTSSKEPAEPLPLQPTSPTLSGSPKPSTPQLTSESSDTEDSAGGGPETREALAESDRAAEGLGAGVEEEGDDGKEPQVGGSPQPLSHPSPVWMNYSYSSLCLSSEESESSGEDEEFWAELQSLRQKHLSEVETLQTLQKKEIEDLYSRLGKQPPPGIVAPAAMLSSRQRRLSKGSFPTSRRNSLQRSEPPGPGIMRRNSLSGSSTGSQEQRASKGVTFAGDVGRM

[9] = biological target: Myosin light chain kinase 2, skeletal/cardiac muscle (Homo sapiens) (UniProt Q9H1R3); details: Compound concentration 1000.0 nM
[10] = biological target: Serine/threonine-protein kinase MARK1 (Homo sapiens) (UniProt Q9P0L2); details: Compound concentration 1000.0 nM
[11] = biological target: Sodium-dependent serotonin transporter (Homo sapiens, UniProt P31645); assay: GPCRScan assay: inhibition of SERT; set-up: radioligand conc. used [nm] 1.5 – 2.0, parental cells stable HEK
Sequence of Sodium-dependent serotonin transporter (P31645 whole entry): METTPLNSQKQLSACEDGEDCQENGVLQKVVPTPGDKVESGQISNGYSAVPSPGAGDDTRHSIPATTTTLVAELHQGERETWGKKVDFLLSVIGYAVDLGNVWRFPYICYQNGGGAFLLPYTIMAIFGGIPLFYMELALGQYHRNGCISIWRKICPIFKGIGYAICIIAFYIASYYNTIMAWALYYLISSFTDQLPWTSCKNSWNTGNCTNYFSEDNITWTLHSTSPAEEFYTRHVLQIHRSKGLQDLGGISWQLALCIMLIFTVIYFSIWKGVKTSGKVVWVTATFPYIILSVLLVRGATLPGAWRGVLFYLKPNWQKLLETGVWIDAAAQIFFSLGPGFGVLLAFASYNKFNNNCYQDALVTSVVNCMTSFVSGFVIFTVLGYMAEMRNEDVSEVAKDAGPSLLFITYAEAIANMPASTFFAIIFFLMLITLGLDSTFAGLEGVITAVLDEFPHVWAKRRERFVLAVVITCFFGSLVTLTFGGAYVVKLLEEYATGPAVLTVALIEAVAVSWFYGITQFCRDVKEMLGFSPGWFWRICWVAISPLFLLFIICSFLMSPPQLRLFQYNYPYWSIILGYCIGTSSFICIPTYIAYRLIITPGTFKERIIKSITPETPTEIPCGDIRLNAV

[12] = biological target: Serine/threonine-protein kinase Sgk3 (Homo sapiens) (UniProt Q96BR1); details: Compound concentration 1000.0 nM
[13] = biological target: Serine/threonine-protein kinase tousled-like 2 (Homo sapiens) (UniProt Q86UE8); details: Compound concentration 1000.0 nM
[14] = biological target: Serine/threonine-protein kinase 3 (Homo sapiens) (UniProt Q13188); details: Compound concentration 1000.0 nM
[15] = biological target: Sodium-dependent noradrenaline transporter (Homo sapiens, UniProt P23975); details: Compound concentration 10.0 uM
[16] = biological target: Serine/threonine-protein kinase RIO1 (Homo sapiens) (UniProt Q9BRS2); details: Compound concentration 1000.0 nM
Sequence of Serine/threonine-protein kinase RIO1 (Homo sapiens) (Q9BRS2 whole entry): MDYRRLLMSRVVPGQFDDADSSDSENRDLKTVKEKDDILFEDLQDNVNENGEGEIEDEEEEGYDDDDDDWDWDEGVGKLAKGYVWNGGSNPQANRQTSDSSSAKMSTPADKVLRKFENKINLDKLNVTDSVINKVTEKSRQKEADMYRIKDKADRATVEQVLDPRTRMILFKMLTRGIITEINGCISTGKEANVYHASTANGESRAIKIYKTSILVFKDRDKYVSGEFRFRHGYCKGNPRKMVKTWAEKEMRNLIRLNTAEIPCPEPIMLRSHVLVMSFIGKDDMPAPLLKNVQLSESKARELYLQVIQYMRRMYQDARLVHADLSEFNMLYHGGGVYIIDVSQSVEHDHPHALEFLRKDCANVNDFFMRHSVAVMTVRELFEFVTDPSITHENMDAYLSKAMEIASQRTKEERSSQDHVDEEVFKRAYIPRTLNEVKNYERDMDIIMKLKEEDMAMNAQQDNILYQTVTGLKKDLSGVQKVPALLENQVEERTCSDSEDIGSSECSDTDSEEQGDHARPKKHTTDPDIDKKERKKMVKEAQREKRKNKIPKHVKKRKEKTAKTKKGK

[17] = biological target: Aurora kinase C (Homo sapiens) (UniProt Q9UQB9); details: Compound concentration 1000.0 nM
Sequence of Aurora kinase C (Homo sapiens) (Q9UQB9 whole entry, canonical isoform): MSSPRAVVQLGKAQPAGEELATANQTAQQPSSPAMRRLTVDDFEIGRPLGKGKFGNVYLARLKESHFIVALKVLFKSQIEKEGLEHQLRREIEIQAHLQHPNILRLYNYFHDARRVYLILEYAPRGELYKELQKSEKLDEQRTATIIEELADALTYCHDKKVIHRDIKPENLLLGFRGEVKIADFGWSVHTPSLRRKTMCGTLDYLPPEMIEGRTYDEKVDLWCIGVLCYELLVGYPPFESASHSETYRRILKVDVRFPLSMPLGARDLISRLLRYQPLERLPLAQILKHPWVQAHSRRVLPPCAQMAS

[18] = biological target: Phosphatidylinositol 4,5-bisphosphate 3-kinase catalytic subunit beta isoform (Homo sapiens) (UniProt P42338); details: Compound concentration 1000.0 nM
[19] = biological target: STE20/SPS1-related proline-alanine-rich protein kinase (Homo sapiens) (UniProt Q9UEW8); details: Compound concentration 1000.0 nM
[20] = tested on: Mast/stem cell growth factor receptor Kit (Homo sapiens), P10721 [V559D]; details: Compound concentration 1000.0 nM
[21] = biological target: Atypical kinase COQ8B, mitochondrial (Homo sapiens) (UniProt Q96D53); details: Compound concentration 1000.0 nM
[22] = biological target: Mitogen-activated protein kinase 7 (Homo sapiens) (UniProt Q13164); details: Compound concentration 1000.0 nM
[23] = biological target: Tyrosine-protein kinase ABL1 (Homo sapiens) (UniProt P00519); details: Compound concentration 1000.0 nM
[24] = tested on: Tyrosine-protein kinase ABL1 (Homo sapiens), P00519 [M351T]; details: Compound concentration 1000.0 nM
[25] = biological target: Interleukin-1 receptor-associated kinase 4 (Homo sapiens) (UniProt Q9NWZ3); details: Compound concentration 1000.0 nM
[26] = biological target: Epithelial discoidin domain-containing receptor 1 (Homo sapiens) (UniProt Q08345); details: Compound concentration 1000.0 nM
[27] = biological target: Tyrosine-protein kinase JAK2 (Homo sapiens) (UniProt O60674); details: Compound concentration 1000.0 nM
Sequence of Tyrosine-protein kinase JAK2 (Homo sapiens) (O60674 whole entry): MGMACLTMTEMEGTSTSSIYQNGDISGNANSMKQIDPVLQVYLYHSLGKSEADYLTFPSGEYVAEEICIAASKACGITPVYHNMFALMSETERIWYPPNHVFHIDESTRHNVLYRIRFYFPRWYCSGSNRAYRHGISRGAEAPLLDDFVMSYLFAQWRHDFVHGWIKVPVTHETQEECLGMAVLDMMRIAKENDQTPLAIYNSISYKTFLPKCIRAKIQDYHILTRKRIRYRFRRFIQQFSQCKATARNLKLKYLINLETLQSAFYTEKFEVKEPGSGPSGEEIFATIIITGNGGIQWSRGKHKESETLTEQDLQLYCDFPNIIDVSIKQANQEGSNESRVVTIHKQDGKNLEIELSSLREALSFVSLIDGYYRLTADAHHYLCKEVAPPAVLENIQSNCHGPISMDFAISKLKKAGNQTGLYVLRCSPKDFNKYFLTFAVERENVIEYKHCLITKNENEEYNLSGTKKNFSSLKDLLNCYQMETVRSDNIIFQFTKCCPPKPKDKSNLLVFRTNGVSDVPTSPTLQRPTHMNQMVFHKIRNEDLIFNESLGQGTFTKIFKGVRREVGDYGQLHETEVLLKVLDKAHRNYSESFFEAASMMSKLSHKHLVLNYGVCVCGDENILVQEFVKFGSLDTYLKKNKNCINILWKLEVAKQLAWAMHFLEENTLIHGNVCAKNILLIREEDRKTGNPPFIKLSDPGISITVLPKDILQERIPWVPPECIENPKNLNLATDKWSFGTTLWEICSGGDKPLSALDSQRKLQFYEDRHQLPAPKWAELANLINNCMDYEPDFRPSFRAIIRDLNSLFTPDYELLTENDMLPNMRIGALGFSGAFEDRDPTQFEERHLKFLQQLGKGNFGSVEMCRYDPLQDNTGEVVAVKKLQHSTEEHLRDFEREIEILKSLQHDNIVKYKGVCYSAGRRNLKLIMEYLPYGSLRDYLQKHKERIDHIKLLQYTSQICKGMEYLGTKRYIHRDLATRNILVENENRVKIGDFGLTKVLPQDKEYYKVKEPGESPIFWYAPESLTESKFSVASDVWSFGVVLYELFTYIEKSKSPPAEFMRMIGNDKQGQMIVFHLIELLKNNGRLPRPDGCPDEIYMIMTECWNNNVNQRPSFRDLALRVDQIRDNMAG

[28] = biological target: Insulin-like growth factor 1 receptor (Homo sapiens) (UniProt P08069); details: Compound concentration 1000.0 nM
[29] = biological target: Serine/threonine-protein kinase 17B (Homo sapiens) (UniProt O94768); details: Compound concentration 1000.0 nM
Sequence of Serine/threonine-protein kinase 17B (Homo sapiens) (O94768 whole entry): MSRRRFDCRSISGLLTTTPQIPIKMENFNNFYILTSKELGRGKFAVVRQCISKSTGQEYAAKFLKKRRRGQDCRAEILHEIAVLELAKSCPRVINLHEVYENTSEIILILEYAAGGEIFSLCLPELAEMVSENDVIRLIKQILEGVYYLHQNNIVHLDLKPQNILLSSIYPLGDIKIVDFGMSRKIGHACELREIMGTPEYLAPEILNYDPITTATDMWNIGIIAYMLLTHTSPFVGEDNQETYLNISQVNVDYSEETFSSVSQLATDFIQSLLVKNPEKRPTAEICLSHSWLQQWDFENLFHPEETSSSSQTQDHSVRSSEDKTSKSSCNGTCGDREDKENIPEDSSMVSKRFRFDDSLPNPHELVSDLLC

[30] = biological target: Cyclin-dependent kinase 19 (Homo sapiens) (UniProt Q9BWU1); details: Compound concentration 1000.0 nM
[31] = biological target: Ribosomal protein S6 kinase alpha-1 (Homo sapiens) (UniProt Q15418); details: Compound concentration 1000.0 nM
[32] = biological target: Serine/threonine-protein kinase Nek9 (Homo sapiens) (UniProt Q8TD19); details: Compound concentration 1000.0 nM
[33] = biological target: Tyrosine-protein kinase ITK/TSK (Homo sapiens) (UniProt Q08881); details: Compound concentration 1000.0 nM
[34] = biological target: Serine/threonine-protein kinase DCLK2 (Homo sapiens) (UniProt Q8N568); details: Compound concentration 1000.0 nM
[35] = biological target: Mitogen-activated protein kinase 14 (Homo sapiens) (UniProt Q16539); details: Compound concentration 1000.0 nM
[36] = biological target: Cyclin-dependent kinase 16 (Homo sapiens) (UniProt Q00536); details: Compound concentration 1000.0 nM
[37] = biological target: Death-associated protein kinase 3 (Homo sapiens) (UniProt O43293); details: Compound concentration 1000.0 nM
[38] = biological target: Serine/threonine-protein kinase PLK4 (Homo sapiens) (UniProt O00444); details: Compound concentration 1000.0 nM
[39] = biological target: Receptor tyrosine-protein kinase erbB-3 (Homo sapiens) (UniProt P21860); details: Compound concentration 1000.0 nM
[40] = biological target: Serine/threonine-protein kinase B-raf (Homo sapiens) (UniProt P15056); details: Compound concentration 1000.0 nM
[41] = biological target: Vascular endothelial growth factor receptor 1 (Homo sapiens) (UniProt P17948); details: Compound concentration 1000.0 nM
[42] = biological target: Serine/threonine-protein kinase 26 (Homo sapiens) (UniProt Q9P289); details: Compound concentration 1000.0 nM
[43] = biological target: Proto-oncogene tyrosine-protein kinase ROS (Homo sapiens) (UniProt P08922); details: Compound concentration 1000.0 nM
[44] = biological target: Casein kinase I isoform alpha-like (Homo sapiens) (UniProt Q8N752); details: Compound concentration 1000.0 nM
[45] = biological target: Phosphorylase b kinase gamma catalytic chain, skeletal muscle/heart isoform (Homo sapiens) (UniProt Q16816); details: Compound concentration 1000.0 nM

Q: With COc1cc(-c2cn([C@H]3CCc4ccccc4N(CC(F)(F)F)C3=O)nn2)ccc1-n1ccc(C)n1 as the compound, how does the residual activity [1] read?
A: Its residual activity is 88%.

Q: What about the residual activity [2] of the same compound?
A: The residual activity was 83%.

Q: What about the residual activity [3] of the same compound?
A: Its residual activity is 100%.

Q: What about the residual activity [4] of the same compound?
A: The residual activity was 100%.

Q: What about the residual activity [5] of the same compound?
A: The residual activity was 100%.

Q: What about the residual activity [6] of the same compound?
A: Its residual activity is 100%.

Q: And the residual activity [7]?
A: The residual activity was 100%.

Q: And the residual activity [8]?
A: Its residual activity is 100%.

Q: And the residual activity [9]?
A: Its residual activity is 73%.

Q: What about the residual activity [10] of the same compound?
A: The residual activity was 99%.

Q: What about the Ki ([11]; read-out: Ki) of the same compound?
A: The Ki was 0.391 µM.

Q: And the Ki ([11]; read-out: pKi (converted))?
A: Its Ki is 0.38 µM.

Q: What about the residual activity [12] of the same compound?
A: Its residual activity is 84%.

Q: And the residual activity [13]?
A: The residual activity was 97%.

Q: What about the residual activity [14] of the same compound?
A: The residual activity was 84%.

Q: What about the inhibition [15] of the same compound?
A: Its inhibition is 49.4%.

Q: And the residual activity [16]?
A: The residual activity was 100%.

Q: What about the residual activity [17] of the same compound?
A: Its residual activity is 100%.

Q: What about the residual activity [18] of the same compound?
A: The residual activity was 100%.

Q: And the residual activity [19]?
A: The residual activity was 98%.

Q: And the residual activity [20]?
A: The residual activity was 96%.

Q: What about the residual activity [21] of the same compound?
A: Its residual activity is 100%.

Q: And the residual activity [22]?
A: Its residual activity is 100%.

Q: And the residual activity [23]?
A: The residual activity was 75%.

Q: What about the residual activity [24] of the same compound?
A: Its residual activity is 64%.

Q: And the residual activity [25]?
A: The residual activity was 95%.

Q: What about the residual activity [26] of the same compound?
A: Its residual activity is 100%.

Q: What about the residual activity [27] of the same compound?
A: Its residual activity is 34%.

Q: And the residual activity [28]?
A: Its residual activity is 100%.

Q: And the residual activity [29]?
A: Its residual activity is 100%.

Q: And the residual activity [30]?
A: The residual activity was 72%.

Q: What about the residual activity [31] of the same compound?
A: The residual activity was 82%.

Q: And the residual activity [32]?
A: Its residual activity is 100%.

Q: What about the residual activity [33] of the same compound?
A: Its residual activity is 100%.

Q: And the residual activity [34]?
A: Its residual activity is 92%.

Q: What about the residual activity [35] of the same compound?
A: Its residual activity is 94%.

Q: What about the residual activity [36] of the same compound?
A: The residual activity was 81%.

Q: And the residual activity [37]?
A: The residual activity was 100%.

Q: And the residual activity [38]?
A: Its residual activity is 73%.

Q: What about the residual activity [39] of the same compound?
A: Its residual activity is 77%.

Q: And the residual activity [40]?
A: The residual activity was 100%.

Q: And the residual activity [41]?
A: The residual activity was 100%.

Q: And the residual activity [42]?
A: The residual activity was 83%.

Q: And the residual activity [43]?
A: Its residual activity is 100%.

Q: What about the residual activity [44] of the same compound?
A: Its residual activity is 100%.

Q: What about the residual activity [45] of the same compound?
A: The residual activity was 80%.

Q: With COc1cc(-c2cn([C@H]3CCc4c(F)cccc4N(CC(F)(F)F)C3=O)nn2)ccc1-n1cnc(C)c1 as the compound, how does the residual activity [1] read?
A: Its residual activity is 100%.

Q: What about the residual activity [2] of the same compound?
A: The residual activity was 100%.

Q: What about the residual activity [3] of the same compound?
A: Its residual activity is 100%.

Q: And the residual activity [4]?
A: The residual activity was 100%.

Q: What about the residual activity [5] of the same compound?
A: Its residual activity is 100%.

Q: And the residual activity [6]?
A: The residual activity was 100%.

Q: And the residual activity [7]?
A: The residual activity was 100%.

Q: And the residual activity [8]?
A: The residual activity was 100%.

Q: What about the residual activity [9] of the same compound?
A: The residual activity was 100%.

Q: What about the residual activity [10] of the same compound?
A: Its residual activity is 100%.

Q: What about the Ki ([11]; read-out: Ki) of the same compound?
A: Its Ki is 0.024 µM.

Q: What about the residual activity [12] of the same compound?
A: The residual activity was 100%.

Q: What about the residual activity [13] of the same compound?
A: Its residual activity is 100%.

Q: What about the residual activity [14] of the same compound?
A: The residual activity was 100%.

Q: What about the inhibition [15] of the same compound?
A: Its inhibition is 87.1%.

Q: What about the residual activity [16] of the same compound?
A: Its residual activity is 96%.

Q: What about the residual activity [17] of the same compound?
A: Its residual activity is 100%.

Q: What about the residual activity [18] of the same compound?
A: Its residual activity is 100%.

Q: What about the residual activity [19] of the same compound?
A: Its residual activity is 100%.

Q: And the residual activity [20]?
A: The residual activity was 100%.

Q: What about the residual activity [21] of the same compound?
A: The residual activity was 77%.

Q: And the residual activity [22]?
A: Its residual activity is 80%.

Q: What about the residual activity [23] of the same compound?
A: The residual activity was 100%.

Q: And the residual activity [24]?
A: The residual activity was 95%.

Q: And the residual activity [25]?
A: Its residual activity is 100%.

Q: And the residual activity [26]?
A: Its residual activity is 100%.

Q: And the residual activity [27]?
A: Its residual activity is 100%.

Q: And the residual activity [28]?
A: The residual activity was 100%.

Q: What about the residual activity [29] of the same compound?
A: Its residual activity is 99%.

Q: What about the residual activity [30] of the same compound?
A: Its residual activity is 97%.

Q: What about the residual activity [31] of the same compound?
A: The residual activity was 81%.

Q: What about the residual activity [32] of the same compound?
A: Its residual activity is 100%.

Q: What about the residual activity [33] of the same compound?
A: The residual activity was 100%.

Q: And the residual activity [34]?
A: The residual activity was 100%.

Q: And the residual activity [35]?
A: The residual activity was 100%.

Q: And the residual activity [36]?
A: Its residual activity is 82%.

Q: What about the residual activity [37] of the same compound?
A: Its residual activity is 100%.

Q: What about the residual activity [38] of the same compound?
A: The residual activity was 100%.

Q: And the residual activity [39]?
A: Its residual activity is 98%.

Q: What about the residual activity [40] of the same compound?
A: The residual activity was 100%.

Q: What about the residual activity [41] of the same compound?
A: Its residual activity is 97%.

Q: What about the residual activity [42] of the same compound?
A: Its residual activity is 90%.

Q: And the residual activity [43]?
A: Its residual activity is 100%.

Q: And the residual activity [44]?
A: The residual activity was 100%.

Q: What about the residual activity [45] of the same compound?
A: The residual activity was 78%.
